According to patent US20130197073A1, “HYPOCHOLESTEROLEMIC, ANTI-INFLAMMATORY AND ANTIEPILEPTIC NEUROPROTECTIVE COMPOUND” (NEURON BIOPHARMA, S.A., priority 2010, published 2013):

How the values were obtained:
[1] = system: zebrafish (Danio rerio, AB strain) embryos; experiment: Zebrafish embryo acute toxicity, mortality (OECD C.15); type: in vivo; settings: for Mortality (dead larvae with respect to the total): 3 days
Experimental: 30 control animals treated with dilution water and with daily replacement until the end of the assay.
30 animals treated with compound NST0060 (3 embryos for every ten replicates) diluted in dilution water at doses between 1 and 100 mg/Kg and with daily replacement of the substance during the days that the assay lasted.
After the time of exposure to the substances under study, the mortality record of the larvae was determined, results being shown in Table 2.

[2] = system: zebrafish (Danio rerio, AB strain) embryos; experiment: Zebrafish embryo acute toxicity, percentage of healthy larvae; settings: mean±SD
[3] = system: zebrafish (Danio rerio, AB strain) embryos; experiment: Zebrafish embryo cardiotoxicity, heart rate; settings: 72 hpt
[4] = system: human neuroblastoma SK-N-MC cells; experiment: Inhibition of DNA fragmentation (sub-G1, flow cytometry) in camptothecin cell model of apoptosis; type: cell-based; settings: 50 μM, positive control; 50 μM CPT
Experimental: (§1) The assay was performed on human neuroblastoma SK-N-MC cells in culture, maintained as described in section 2.1.
The inhibition caused by compound NST0060 with respect to apoptosis caused by treatment with camptothecin (CPT), which inhibits the topoisomerase I enzyme, prevents DNA duplication and triggers apoptotic cell death. These cells, not exceeding 15 passages, were seeded on 6-well plates treated for adherent cells with a cell concentration of 7×10^5 cells/well; 2 wells of the plate were seeded for each assay condition.
After 24 hours of cell incubation (at 37° C. and 5% CO2), cell pretreatment was performed with 10 and 40 μM of NST0060 for 24 hours; they were subsequently treated with 50 μM CPT for 6 hours. Furthermore, Z-VAD-fmk at 50 μM was used as positive control for inhibition.
After treatment, the cells were collected along with their culture medium and centrifuged at 300×g for 5 minutes. The medium was removed, a washing was performed with PBS and the cells were fixed for 2 minutes with 500 μl of 70% ethanol at −20° C. […] After this time they were analyzed by flow cytometry, comparing the fluorescence of propidium iodide with respect to the amount of DNA. The percentage of apoptosis was measured on the sub-G1 region of each of the conditions.

caspase 3/7 = experiment: Inhibition of activation of caspase 3/7 in camptothecin cell model of apoptosis; type: cell-based, human; settings: 50 μM, positive control; 50 μM CPT 6 hours
Experimental: as §1
The induction of apoptosis on the cells in culture was performed with camptothecin (CPT), which triggers the activation of cell apoptosis. Apoptosis was quantified by means of the measurement of the activation of effector caspases, caspase 3 or caspase 7, for which a kit for the fluorometric detection of active caspase 3/7 (Apo-ONE® Homogeneous Caspase-3/7, Promega) was used. Active caspases 3 or 7 of the cells cause the rupture of a substrate, which leads to fluorescence emission, which is read by means of a fluorometer. The effect of the pretreatment of compound NST0060 at 10 and 40 μM on the activation of caspase 3/7 produced by 50 μM of camptothecin (CPT) in the SK-N-MC cells was thus analyzed. These cells, not exceeding 15 passages, were seeded on 96-well plates treated for adherent cells with a cell concentration of 5×10^4 cells/well; 3 wells of the plate were seeded for each assay condition.
After 24 hours of cell incubation (at 37° C. and 5% CO2), the pretreatment with NST0060 at 10 and 40 μM was performed.
The cells were incubated (at 37° C. and 5% CO2) with these treatments for 6 hours, after which cell lysis buffer and the caspase substrate at the concentrations specified by the manufacturer were added; it was incubated at room temperature for 30 minutes and then frozen at −20° C. overnight. Fluorescence was measured the next day (499/521 nm, Exci/Emi).

| Molecule | Mortality (dead larvae with respect to the total) ([1]; Dose 1 mg/kg) | Mortality (dead larvae with respect to the total) ([1]; Dose 3 mg/kg) | Mortality (dead larvae with respect to the total) ([1]; Dose 10 mg/kg) | Mortality (dead larvae with respect to the total) ([1]; Dose 30 mg/kg) | Mortality (dead larvae with respect to the total) ([1]; Dose 100 mg/kg) | deaths out of 30 animals ([1]; dose of 10 mg/Kg, 72 h) | percentage of healthy larvae ([2]; dose of 1 mg/Kg) | percentage of healthy larvae ([2]; dose of 3 mg/Kg) | heart rate with respect to the controls ([3]; dose of 3 mg/Kg) | heart rate with respect to the controls ([3]; dose of 10 mg/Kg) | inhibition of apoptosis (DNA fragmentation) caused by CPT [4] | inhibition of the activation of caspase 3/7 (caspase 3/7) |
| --- | --- | --- | --- | --- | --- | --- | --- | --- | --- | --- | --- | --- |
| CCC(C)(C)C(=O)O[C@H]1C[C@@H](C)C=C2C=C[C@H](C)[C@H](CC[C@@H]3C[C@@H](O)CC(=O)O3)[C@H]21 [simvastatin, reference compound] | 0/30 | 0/30 | 16/30 | 30/30 | 30/30 | 16 | 50.0±22.4% | 50.0±22.4% | significant decrease of the heart rate | significant decrease of the heart rate | – | – |
| Z-VAD-fmk [reference compound] | – | – | – | – | – | – | – | – | – | – | specifically inhibited apoptosis caused by CPT | completely inhibited |
